Data set [1] in a line: Inhibition of Clostridium difficile SpoVD using Boc-FL as substrate preincubated for 30 mins followed by substrate addition measured after 30 mins by FP assay. On the set-up: species or system Clostridioides difficile.
The subject of data set [2] is Clostridioides difficile. Description: Anti-sporulation activity against Clostridium difficile M7404 assessed as fold reduction in spore count incubated overnight by absorbance based assay relative to control. The class given is functional.
For data set [3], the system named is Clostridioides difficile. The experiment in a line: Antimicrobial activity against Clostridium difficile assessed as microbial growth inhibition incubated for 18 hrs. The format is functional.
Data set [4] has as its system Staphylococcus aureus. Description: Antimicrobial activity against methicillin-resistant Staphylococcus aureus ATCC 43300 assessed as microbial growth inhibition incubated for 18 hrs. The class given is functional.
In data set [5] the test system is Escherichia coli. Description: Antimicrobial activity against Escherichia coli ATCC 25922 assessed as microbial growth inhibition incubated for 18 hrs. The class given is functional.
Data set [6] relates to Klebsiella pneumoniae. Description: Antimicrobial activity against multidrug-resistant Klebsiella pneumoniae ATCC 700603 assessed as microbial growth inhibition incubated for 18 hrs. The format is functional.
The test system of data set [7] is Pseudomonas aeruginosa. The experiment in a line: Antimicrobial activity against Pseudomonas aeruginosa ATCC 27853 assessed as microbial growth inhibition incubated for 18 hrs. The format is functional.
Data set [8] has as its system Acinetobacter baumannii. The experiment in a line: Antimicrobial activity against Acinetobacter baumannii ATCC 19603 assessed as microbial growth inhibition incubated for 18 hrs. The class given is functional.
For data set [9], the system named is Candida albicans. The experiment in a line: Antimicrobial activity against Candida albicans ATCC 90028 assessed as microbial growth inhibition incubated for 36 hrs by resazurin dye based assay. The class given is functional. A general note: Alamar Blue is a resazurin reagent that responds to reducing activity.
The subject of data set [10] is Cryptococcus neoformans. Description: Antimicrobial activity against Cryptococcus neoformans ATCC 208821 assessed as microbial growth inhibition incubated for 36 hrs by resazurin dye based assay. The format is functional.
Data set [11] can be described thus: Cytotoxicity against HEK293 cells incubated for 20 hrs by resazurin dye based assay. The format is toxicity, cell-based. The settings on record: human.
Data set [12] concerns Erythrocyte. Description: Hemolytic activity in human RBC incubated for 70 mins by absorbance based assay. The format is toxicity, cell-based. The settings on record: 1.167 h.
For data set [13], the system named is Clostridioides difficile. Description: Anti-sporulation activity against Clostridium difficile M7404 infected in C57BL/6J mouse model assessed as reduction in spore shedding in faeces at 50 ug/ml pre-infected for 6 hrs followed by compound treatment measured for 2 to 4 days post-infection. The class given is functional, organism-based. The settings on record: dose 50.0 µg/ml, time 42-90 hrs.

In brackets after ≈: the same amount, converted by molar mass. Activity calls are given as the source filed them. No cut-off for these calls is given here. Where only a bound is given, the exact number is not on record here.

The molecule `CO[C@@]1(NC(=O)Cn2cc(CCC(C)C)nn2)C(=O)N2C(C(=O)O)=C(CSc3nnnn3C)CS[C@@H]21` displayed an IC50 in [1] of 142 nM. Also, the “fold change (FC)” value in data set [2] was found to be 1000. The MIC50 in data set [3] is 5 µg/mL (≈ 9.3 µM); in [4], 32 µg/mL (≈ 59.5 µM); in data set [5], 32 µg/mL (≈ 59.5 µM); in data set [6], greater than 32 µg/mL; in [7], greater than 32 µg/mL; in data set [8], greater than 32 µg/mL. Further, the MIC50 in data set [9] and in data set [10] was greater than 32 µg/mL throughout. The same molecule registered a CC50 at 20 h in data set [11] of 16.1 µg/mL (≈ 29.9 µM). In data set [12], this molecule registered an HC10 greater than 32 µg/mL.
As for `CO[C@@]1(NC(=O)Cn2cc(-c3ccc4ccccc4c3)nn2)C(=O)N2C(C(=O)O)=C(CSc3nnnn3C)CS[C@@H]21`, the IC50 in [1] came to 54 nM. Moreover, in data set [2], the “fold change (FC)” value was greater than 100000. Further, the MIC50 in data set [3] was 20 µg/mL (≈ 33.7 µM); in [4], 32 µg/mL (≈ 53.9 µM); in data set [5], greater than 32 µg/mL; in data set [6], greater than 32 µg/mL; in data set [7] it was greater than 32 µg/mL; in [8] it was greater than 32 µg/mL. The MIC50 in data set [9] and in data set [10] was greater than 32 µg/mL in each case. The same molecule came in with a CC50 at 20 h in data set [11] greater than 32 µg/mL. Besides, the HC10 in [12] is greater than 32 µg/mL.
In [1], `COc1ccc(-c2cn(CC(=O)N[C@]3(OC)C(=O)N4C(C(=O)O)=C(CSc5nnnn5C)CS[C@@H]43)nn2)cc1` returned an IC50 greater than 15000 nM. In addition, the “fold change (FC)” value in data set [2] was 100. In addition, the MIC50 was 10 µg/mL (≈ 17.4 µM) in [3]; 32 µg/mL (≈ 55.8 µM) in data set [4]; 32 µg/mL (≈ 55.8 µM) in data set [5]; greater than 32 µg/mL in data set [6]; greater than 32 µg/mL in data set [7]; greater than 32 µg/mL in [8]. The MIC50 in data set [9] and in data set [10] was greater than 32 µg/mL throughout. Further, in [11], the CC50 at 20 h is greater than 32 µg/mL. In [12], this molecule showed an HC10 greater than 32 µg/mL.
Take `CO[C@@]1(NC(=O)Cn2cc(-c3ccc(C(=O)O)cc3)nn2)C(=O)N2C(C(=O)O)=C(CSc3nnnn3C)CS[C@@H]21`: in data set [1], it took 115 nM to reach half-maximal inhibition (IC50). Besides, in data set [2], the “fold change (FC)” value amounted to 1000. Besides, the MIC50 in [3] was 10 µg/mL (≈ 17 µM); in data set [4], 32 µg/mL (≈ 54.5 µM); in data set [5], 32 µg/mL (≈ 54.5 µM); in [6], 32 µg/mL (≈ 54.5 µM); in data set [7] it was greater than 32 µg/mL; in [8] it was greater than 32 µg/mL. The MIC50 in data set [9] and in data set [10] was greater than 32 µg/mL throughout. In data set [11], this molecule showed a CC50 at 20 h greater than 32 µg/mL. The HC10 in data set [12] is greater than 32 µg/mL.
Turning to `CO[C@@]1(NC(=O)Cn2cc(-c3cccc(C(=O)O)c3)nn2)C(=O)N2C(C(=O)O)=C(CSc3nnnn3C)CS[C@@H]21`, 69 nM corresponded to half-maximal inhibition in data set [1] (IC50). For the same molecule, the “fold change (FC)” value in [2] stood at 1000. Further, the MIC50 in data set [3] is 5 µg/mL (≈ 8.51 µM); in [4], 32 µg/mL (≈ 54.5 µM); in data set [5] it was 8 µg/mL (≈ 13.6 µM); in data set [6], 32 µg/mL (≈ 54.5 µM); in [7] it was greater than 32 µg/mL; in data set [8], greater than 32 µg/mL. Moreover, the MIC50 in data set [9] and in data set [10] was greater than 32 µg/mL throughout. This molecule also had a CC50 at 20 h in [11] greater than 32 µg/mL. The HC10 in data set [12] was greater than 32 µg/mL.
Consider `CO[C@@]1(NC(=O)Cn2cc(CO)nn2)C(=O)N2C(C(=O)O)=C(CSc3nnnn3C)CS[C@@H]21`, for which the IC50 in [1] was determined as 369 nM. In addition, the “fold change (FC)” value in data set [2] was determined as 10. Also, the MIC50 was 10 µg/mL (≈ 20.1 µM) in data set [3]; 32 µg/mL (≈ 64.3 µM) in data set [4]; 16 µg/mL (≈ 32.2 µM) in data set [5]; 16 µg/mL (≈ 32.2 µM) in data set [6]; greater than 32 µg/mL in [7]; greater than 32 µg/mL in data set [8]. The MIC50 in data set [9] and in data set [10] was greater than 32 µg/mL in each case. In addition, the CC50 at 20 h in data set [11] is greater than 32 µg/mL. In data set [12], this molecule came in with an HC10 greater than 32 µg/mL.
As to `CO[C@@]1(NC(=O)Cn2cc(-c3ccc(C#N)cc3)nn2)C(=O)N2C(C(=O)O)=C(CSc3nnnn3C)CS[C@@H]21`, the IC50 in [1] is 72 nM. In data set [2], the “fold change (FC)” value is given as greater than 100000. Further, the MIC50 is greater than 40 µg/mL in data set [3]; greater than 32 µg/mL in data set [4]; 32 µg/mL (≈ 56.3 µM) in [5]; greater than 32 µg/mL in data set [6]; greater than 32 µg/mL in [7]; greater than 32 µg/mL in data set [8]. In addition, the MIC50 in data set [9] and in [10] was greater than 32 µg/mL throughout. The molecule further registered a CC50 at 20 h in data set [11] greater than 32 µg/mL. Further, the HC10 in data set [12] was greater than 32 µg/mL.
`CO[C@@]1(NC(=O)Cn2cc(-c3ccccc3)nn2)C(=O)N2C(C(=O)O)=C(CSc3nnnn3C)CS[C@@H]21`: half-maximal inhibition in data set [1] (IC50) was put at 89 nM. For the same molecule, the “fold change (FC)” value in data set [2] is greater than 100000. The MIC50 is 5 µg/mL (≈ 9.2 µM) in [3]; 32 µg/mL (≈ 58.9 µM) in [4]; 32 µg/mL (≈ 58.9 µM) in data set [5]; 32 µg/mL (≈ 58.9 µM) in [6]; greater than 32 µg/mL in data set [7]; greater than 32 µg/mL in data set [8]. Also, the MIC50 in data set [9] and in data set [10] was greater than 32 µg/mL throughout. The CC50 at 20 h in data set [11] was greater than 32 µg/mL. The same molecule registered an HC10 in data set [12] greater than 32 µg/mL. Also, the outcome in data set [13] was Active.

A word on the IC50: it is the concentration that inhibits the measured activity by half. Low values mean higher potency, high ones lower potency. One may read the MIC50 as an inhibitory concentration at the 50% level, which refers to growth in some studies and to a panel of isolates in others. The term CC50 denotes the concentration at which the toxic effect on the cells reaches its halfway point.

These data come from ChEMBL document CHEMBL5532659, “Design, Synthesis, and Evaluation of Cephamycin-Based Antisporulation Agents targeting Clostridioides difficile” (J Med Chem, 2024).
